Laboratory results: USRE42274E1, “Cyclic peptide CXCR4 antagonists” (Eli Lilly and Company, priority 2007, dated 2011)
Structures can show the parent of a compound that is named as a salt. Blank lines part the entries; values can stand above or below the molecule they belong to. Numbered stars: 1 amine (or outer) side, 2 acyl side, 3 side chain; on linkers, the order of the positions; unused ones are H or OH. Bridge positions count the residues as written; N and C are the ends. Square brackets hold non-standard residues; d marks the D form. Peptide text beside a SMILES is read from it. * marks the point of attachment. Lys(iPr-d6) = deuterated Lys(iPr), [2H]C([2H])([2H])C(NCCCC[C@H](N[*:1])C(=O)[*:2])C([2H])([2H])[2H]; 2Nal = N[C@@H](Cc1ccc2ccccc2c1)C(=O)O; Lys(iPr) = CC(C)NCCCC[C@H](N)C(=O)O; Lys(Me2) = CN(C)CCCC[C@H](N)C(=O)O; Dap = NC[C@H](N)C(=O)O; Bz = O=C(c1ccccc1)*

Assays:
[1] = system: human non-Hodgkin's lymphoma Namalwa cells; test: Anti-tumor activity in a SCID/Namalwa xenograft model; type: in vivo, mouse; details: 1 mg/kg BID, subcutaneous
Text: Anti-Tumor Activity in a SCID/Namalwa Xenograft Model
SDF-1/CXCR4 interaction appears to play an important role in multiple stages of tumorigenesis, including tumor growth, invasion, angiogenesis, and metastasis. To evaluate in vivo anti-tumor activity of a test compound, a tumor xenograft model using NOD/SCID mice (Jackson Laboratories) and human non-Hodgkin's lymphoma Namalwa cells (ATCC CRL 1432) are employed. Briefly, 200,000 Namalwa cells mixed with matrigel (1:1) are implanted subcutaneously into the rear flank of the animals. The implanted tumor cells grow as solid tumors, the dimensions of which can be continuously monitored and measured using a caliper. To determine the in vivo efficacy of a test compound in this model, one can treat animals (10/group) with different doses of test compounds dissolved in saline or PBS, beginning 48 hours post tumor cell implantation. Compounds are dosed subcutaneously, and tumor volume and body weight are determined every 2 or 3 days. Studies generally last 3-4 weeks, depending on tumor growth. The anti-tumor growth activity of a test compound is determined by the percent reduction in tumor volume in treatment groups compared to tumor volume in control groups treated with vehicle alone.

[2] = biological target: T1, human chemokine receptor CXCR2 (Homo sapiens, UniProt P25025); test: Chemokine receptor binding selectivity assay, ligand binding
T1 sequence (P25025 1-360): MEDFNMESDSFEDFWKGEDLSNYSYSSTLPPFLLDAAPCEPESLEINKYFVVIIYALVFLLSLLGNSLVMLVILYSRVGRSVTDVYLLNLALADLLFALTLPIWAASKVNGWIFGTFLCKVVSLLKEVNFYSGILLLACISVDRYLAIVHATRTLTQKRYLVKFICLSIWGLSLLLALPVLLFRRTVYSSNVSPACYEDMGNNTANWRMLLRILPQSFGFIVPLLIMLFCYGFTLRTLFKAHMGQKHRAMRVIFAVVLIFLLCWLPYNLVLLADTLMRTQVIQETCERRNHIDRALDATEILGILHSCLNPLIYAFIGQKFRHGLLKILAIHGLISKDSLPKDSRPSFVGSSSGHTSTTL
Text: Chemokine Receptor Binding Selectivity Assays
The binding selectivity of the present compounds for the CXCR4 receptor compared to that for other chemokine receptors, such as human CCR1, CCR2, CXCR2, or CXCR3, and other G-protein-coupled receptors, can be assessed in cells transfected with nucleic acid encoding and expressing such receptors, or in cells in which such receptors are endogenously expressed. Whole cells or membrane fragments can be used to assess competition of test compounds with the respective ligands for these receptors in a manner similar to that described above for the CXCR4/^125I-SDF-1α binding inhibition assay.

[3] = In vivo metabolic stability in dog; details: up to 24 hours after administration
Procedure: (§1) Pharmacologic properties such as compound bioavailability, in vivo metabolic stability, and pharmacokinetic/pharmacodynamic properties can be determined by methods well known in the art of drug development. […] For example, in mice, the half-life (T½) of the compound of Example 58 is about 3 hours. With respect to pharmacodynamic properties, preferred compounds induce prolonged neutrophil and white blood cell mobilization in mice. For example, the compound of Example 25 induces a significant increase of neutrophils and white blood cells in peripheral blood for at least 6 hours after single dose subcutaneous administration at 5 mg/kg in mice.

[4] = In vivo metabolic stability in monkey; details: up to 24 hours after administration
Procedure: as §1

CXCR4 [5] = biological target: T2, CXCR4 (Homo sapiens, UniProt P61073); test: Chemotaxis assay, SDF-1α-induced migration of U937 cells; type: cell-based; set-up: endogenous in cells; details: SDF-1α 10 ng/mL
Text: CXCR4/SDF-1 interaction regulates migration (chemotaxis) of cells bearing CXCR4 on their surface. To determine the antagonist and cellular activities of a test compound, a chemotaxis assay using human histiocytic lymphoma U937 cells (ATCC CRL 1593) that express endogenous CXCR4 are employed. Briefly, U937 cells, grown in DMEM medium (Gibco, Grand Island, N.Y.) containing 10% FBS, 1% MEM sodium pyruvate (Gibco), 1% MEM nonessential amino acids (Gibco), and 1% GlutaMAX 1 (Gibco), are harvested and washed once with chemotaxis assay buffer prepared with 1×RPMI medium (Gibco) containing 10 mM HEPES, pH 7.5, and 0.3% BSA. After washing, cells are resuspended in assay buffer at a concentration of 5×10^6 cells/mL. The assay is performed in a 96-well ChemoTx plate (NeuroProbe) according to the manufacturer's directions. […] The plate is then incubated for 60 min at 37° C., and the migrated cells are detected by measuring the absorbance at 492 nm with a Tecan Spectrafluor Plus Microplate Reader (Salzburg, Austria). CXCR4 antagonists inhibit cell migration, reducing the absorbance reading. The inhibitory potency (IC50) of a test compound in this assay is calculated using GraphPad Prism software, based on the dose-dependent decrease of absorbance at 492 nm.

Bioavailability in rats = details: rat, in vivo, sc, subcutaneous
Procedure: as §1

CXCR4 [6] = biological target: T2, CXCR4; test: Human CXCR4/125I-SDF-1α binding inhibition assay; set-up: human leukemia CCRF-CEM cells (ATCC CCL 119) expressing endogenous CXCR4 are employed; endogenous in cells; host or cells: CCRF-CEM (ATCC CCL 119), whole cells; details: for Ki: CCRF-CEM cells expressing endogenous CXCR4, Ki calculated from IC50
Procedure: “Ki” values are calculated using IC50 values determined in the CXCR4/^125I-SDF-1α binding assay described below by employing equation 7.22 of Enzymes, A Practical Introduction to Structure, Mechanism, and Data Analysis, Robert A. Copeland, Wiley-VCH, New York, 1996, page 207.
Human CXCR4/^125I-SDF-1α Binding Inhibition Assay
SDF-1 binding to CXCR4 is the first step in activating the CXCR4 intracellular signalling pathway. To determine if a compound can block the interaction of SDF-1 and CXCR4, human leukemia CCRF-CEM cells (ATCC CCL 119) expressing endogenous CXCR4 are employed in an ^125I-labeled SDF-1α binding assay. The assay is performed in a 96-well U-bottom, non-treated polystyrene plate (Corning Incorporated, Costar, No. 3632). The binding assay buffer is prepared with RPMI 1640 medium (Gibco, Grand Island, N.Y.) containing 10 mM HEPES, pH 7.5, and 0.2% BSA. Briefly, 200 μL reaction mixtures containing 300 pM SDF ligand (60 pM ^125I-SDF-1α (Perkin Elmer) and 240 pM cold SDF-1α (R&D Systems), different concentrations of the test compound in assay buffer, 100,000 human CCRF-CEM cells, and 0.5 mg SPA beads (Wheatgerm agglutinin beads; Amersham) are incubated at room temperature for 2 hr. Plates are then counted in a 1450 Microbeta Liquid Scintillation and Luminescence Counter (Wallac) in SPA mode. CXCR4 antagonists decrease the bound radioactivity in this assay in a dose-dependent manner. The inhibitory potency (K1 or IC50) of a test compound is calculated using GraphPad Prism software, based on the dose-dependent decrease of bound radioactivity.

[7] = system: neutrophils and white blood cells in peripheral blood; test: Compound-induced white blood cell and neutrophil mobilization in C57BL/6 mice; type: in vivo, mouse; details: 5 mg/kg
Text: Compound-Induced White Blood Cell and Neutrophil Mobilization in C57BL/6 Mice
Stem cells within the bone marrow actively maintain continuous production of all mature blood cell lineages throughout life. Bone marrow is the primary site for white blood cell (WBC)/neutrophil production and release into the circulation. The CXCR4/SDF-1 axis appears to be critical for the retention and release of WBCs, neutrophils, and hematopoietic progenitor cells in the bone marrow, and interruption of CXCR4/SDF-1 interaction in bone marrow leads to an increase of these cells in peripheral blood. A short-term mouse WBC/neutrophil mobilization model can be used to determine the in vivo target-modulating activity of a test compound. Briefly, pathogen-free 5-6 week old female C57BL/6 mice (Taconic) are housed for at least one week prior to assay. Animals are allowed continuous access to sterilized rodent chow and acidified water. Groups of 5 mice are injected subcutaneously with test compounds in saline, or with saline control, and then sacrificed by CO2 asphyxiation and cervical dislocation at various time points post compound administration. Peripheral blood is collected by cardiac puncture using EDTA-coated syringes and tubes. […] Total WBCs, neutrophils, and lymphocytes in the peripheral blood are recorded. […]

T2 sequence (P61073 whole entry): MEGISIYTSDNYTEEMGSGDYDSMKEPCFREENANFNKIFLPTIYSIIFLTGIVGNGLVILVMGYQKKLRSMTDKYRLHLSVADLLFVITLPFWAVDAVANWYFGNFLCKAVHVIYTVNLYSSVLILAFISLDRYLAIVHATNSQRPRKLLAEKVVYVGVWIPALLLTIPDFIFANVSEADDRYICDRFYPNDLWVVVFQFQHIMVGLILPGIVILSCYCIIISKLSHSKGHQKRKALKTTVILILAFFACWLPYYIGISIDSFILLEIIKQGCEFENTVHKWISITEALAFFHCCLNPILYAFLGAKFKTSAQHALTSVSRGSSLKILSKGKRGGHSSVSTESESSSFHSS

Molecule: cyclo[Gly-Tyr-Lys(iPr)-DArg-2Nal-Gly-DGlu]-NH2 (GY[Lys(iPr)][dR][2Nal]G[dE]-NH2; lactam N-7; SMILES CC(C)NCCCC[C@@H]1NC(=O)[C@H](Cc2ccc(O)cc2)NC(=O)CNC(=O)CC[C@H](C(N)=O)NC(=O)CNC(=O)[C@H](Cc2ccc3ccccc3c2)NC(=O)[C@@H](CCCNC(=N)N)NC1=O) [Example 26]
tumor growth inhibition [1]: significantly inhibit tumor growth

Ki [2]: > 73000 nM
metabolites in plasma and urine [3]: no detectable metabolites
metabolites in plasma and urine [4]: no detectable metabolites
Molecule: CC(C)NCCCC[C@H](NC(=O)[C@H]1CCC(=O)N[C@@H](Cc2ccccc2)C(=O)N[C@@H](Cc2ccc(O)cc2)C(=O)N[C@@H](CCCCNC(C)C)C(=O)N[C@H](CCCNC(=N)N)C(=O)N[C@@H](Cc2ccc3ccccc3c2)C(=O)NCC(=O)N1)C(N)=O [Example 57a, cyclo[Phe-Tyr-Lys(iPr)-DArg-2Nal-Gly-DGlu]-Lys (iPr)-NH2.acetic acid salt] (FY[Lys(iPr)][dR][2Nal]G[dE][Lys(iPr)]-NH2; lactam N-7)

IC50 (CXCR4 [5]): 2.05 nM
Molecule: CN(C)CCCC[C@@H]1NC(=O)[C@H](Cc2ccc(O)cc2)NC(=O)[C@@H](NC(=O)c2ccccc2)CC(=O)NC[C@@H](C(=O)N[C@@H](CCCNC(=N)N)C(N)=O)NC(=O)CNC(=O)[C@H](Cc2ccc3ccccc3c2)NC(=O)[C@@H](CCCNC(=N)N)NC1=O [Example 19, Bz-cyclo[Asp-Tyr-Lys(Me2)-DArg-2Nal-Gly-Dap]-Arg-NH2] (Bz-DY[Lys(Me2)][dR][2Nal]G[Dap]R-NH2; lactam 1-7)

bioavailability (Bioavailability in rats): ~100%
Molecule: CCNC(=O)[C@H](CCCNC(=N)N)NC(=O)[C@H]1CCC(=O)NCC(=O)N[C@@H](Cc2ccc(O)cc2)C(=O)N[C@@H](CCCCNC(C)C)C(=O)N[C@H](CCCNC(=N)N)C(=O)N[C@@H](Cc2ccc3ccccc3c2)C(=O)NCC(=O)N1 [Example 44, cyclo[Gly-Tyr-Lys(iPr)-DArg-2Nal-Gly-DGlu]-Arg-NHEt] (GY[Lys(iPr)][dR][2Nal]G[dE]R-NHEt; lactam N-7)

target receptor affinity compared to the non-labeled counterpart (CXCR4 [6]; deuterium-labeled peptide vs non-labeled counterpart): identical target receptor affinity
Molecule: cyclo[Phe-Tyr-Lys(iPr-d6)-DArg-2Nal-Gly-DGlu]-Lys(iPr-d6)-NH2 (FY[Lys(iPr-d6)][dR][2Nal]G[dE][Lys(iPr-d6)]-NH2; lactam N-7) [Example 89]

Molecule: cyclo[Gly-Tyr-Lys(iPr)-DArg-2Nal-Gly-Glu]-Arg-NH2 (GY[Lys(iPr)][dR][2Nal]GER-NH2; lactam N-7) [Example 39]
average neutrophil ratio (neutrophil increase in treatment group vs. saline control group) ([7]; 3 hours after compound administration, subcutaneous): 4.6

Molecule: cyclo[Gly-Tyr-Lys(iPr)-DArg-2Nal-Gly-DGlu]-Arg-NH2 (GY[Lys(iPr)][dR][2Nal]G[dE]R-NH2; lactam N-7) [Example 25]
duration of significant increase of neutrophils and white blood cells in peripheral blood ([7]; single dose subcutaneous, mice): at least 6 hours

Ki (CXCR4 [6]): 3.45 nM
Molecule: CC(=O)N[C@H]1CNC(=O)CC[C@@H](C(=O)N[C@@H](CCCNC(=N)N)C(N)=O)NC(=O)CNC(=O)[C@H](Cc2ccc3ccccc3c2)NC(=O)[C@@H](CCCNC(=N)N)NC(=O)[C@H](CCCNC(=N)N)NC(=O)[C@H](Cc2ccc(O)cc2)NC1=O [Example 1, Ac-cyclo[Dap-Tyr-Arg-DArg-2Nal-Gly-Glu]-Arg-NH2] (Ac-[Dap]YR[dR][2Nal]GER-NH2; lactam 1-7)

IC50 (CXCR4 [5]): 0.171 nM
Ki (CXCR4 [6]): 0.285 nM
Molecule: CC(C)NCCCC[C@@H]1NC(=O)[C@H](Cc2ccc(O)cc2)NC(=O)[C@@H](C)NC(=O)CC[C@H](C(N)=O)NC(=O)CNC(=O)[C@H](Cc2ccc3ccccc3c2)NC(=O)[C@@H](CCCNC(=N)N)NC1=O [Example 50, cyclo[DAla-Tyr-Lys(iPr)-DArg-2Nal-Gly-DGlu]-NH2] ([dA]Y[Lys(iPr)][dR][2Nal]G[dE]-NH2; lactam N-7)

Ki (CXCR4 [6]): 0.096 nM
Molecule: CC(C)NCCCC[C@@H]1NC(=O)[C@H](Cc2ccc(O)cc2)NC(=O)CNC(=O)CC[C@H](C(=O)N[C@@H](CCCCNC(C)C)C(=O)NCC(=O)N[C@@H](Cc2ccc3ccccc3c2)C(N)=O)NC(=O)CNC(=O)[C@H](Cc2ccc3ccccc3c2)NC(=O)[C@@H](CCCNC(=N)N)NC1=O [Example 75, cyclo[Gly-Tyr-Lys(iPr)-DArg-2Nal-Gly-DGlu]-Lys (iPr)-Gly-2Nal-NH2] (GY[Lys(iPr)][dR][2Nal]G[dE][Lys(iPr)]G[2Nal]-NH2; lactam N-7)
